Experimental data: US9839618B2, “Compositions and methods relating to proliferative diseases” (The Penn State Research Foundation, priority 2010, dated 2017)

Key:
[1] = test system: cell lines established from melanocytic lesions or melanomas; experiment: MTS assay, leelamine on melanocytic lesion and melanoma cell lines; type: cell-based; details: 72 hour exposure; read-out: concentration to kill 50% of cells
Procedure: The efficacy of leelamine to kill other cancer types is measured and the IC50 for cell lines derived from carcinomas of breast, lung, prostate, connective tissue, pancreas and colon determined. The MTS assay as described in Sharma, A. et al., Clin Cancer Res, 2009, 15:1674-85; and Madhunapantula, S. V. et al., Mol Cancer Ther, 2008, 7:1297-308 is used to establish the IC50 at 24, 48 and 72 hours of leelamine treatment for normal human epidermal melanocytes (FOM103), normal skin fibroblast cells (FF2441), normal skin keratinocytes (HFK) and compared to melanocytic lesion cells from the radial-, vertical- and metastatic melanoma stages. […] IC50 values for each compound in μmol/L for respective cell lines are measured from three independent experiments using GraphPad Prism version 4.01 (GraphPad Software, La Jolla, Calif.). […]
5×10^3 cells per well in 100 μL of media are plated and grown in a 96-well plate for 48 to 72 hours and treated with either DMSO vehicle control or 0.62 to 40 μmol/L of leelamine for 24, 48 or 72 hours. IC50 values for each compound in μmol/L for respective cell lines are measured from three independent experiments using GraphPad Prism version 4.01 (GraphPad Software, La Jolla, Calif.).

[2] = Toxicity assessment of leelamine; type: in vivo, Swiss Webster mice
Procedure: To assess toxicity, Swiss Webster (n=5) mice are intraperitoneally injected with 5 or 10 mg/kg body weight leelamine or with vehicle control (DMSO) every day for 4 weeks. Animals are weighed daily to ascertain the toxicity leading to changes in body weight. Blood is collected by cardiac puncture at the end of treatment and analyzed for the levels of ALP (alkaline phosphatase), ALT (alanine aminotransferase), AST (aspartate aminotransferase), CK (creatine kinase), CREA (creatinine) and GLU (glucose), parameters indicative of organ related toxicity, following systemic administration of 10-mg/Kg-body weight of leelamine, shown in FIG. 11. […] Vital organs including liver, spleen, kidney, intestine, lung and heart from control and experimental animals are collected at the end of the test period, formalin fixed, paraffin-embedded, hematoxylin/eosin stained and analyzed microscopically for changes in cellular morphology or tissue architecture as described in Sharma, A. et al., Clin Cancer Res, 2009, 15:1674-85; and Madhunapantula, S. V. et al., Mol Cancer Ther, 2008, 7:1297-308.

[3] = test system: UACC 903 xenograft tumors; experiment: Size and time matched tumors (Ki-67, TUNEL, CD31, Western blot); type: in vivo, mice
From the text: Rates of cell proliferation (using Ki-67), apoptosis (using terminal deoxynucleotidyl transferase-mediated dUTP nick-end labeling) and tumor angiogenesis (using CD31 staining) are quantified in time and size matched tumors treated with leelamine compared with DMSO treated control animals to identify the underlying mechanism by which leelamine inhibits melanoma tumor development using an established method described in Sharma, A. et al., Clin Cancer Res, 2009, 15:1674-85; Madhunapantula, S. V. et al., Mol Cancer Ther, 2008, 7:1297-308; Sharma, A. et al., Cancer Res, 2006, 66:8200-9; and Stahl, J. M. et al., Cancer Res, 2003, 63:2881-90. Size and time matched tumors at each time are compared to identify the first statistically quantifiable difference(s) affected by leelamine treatment in the rates of processes regulating tumor development i.e. cell proliferation, apoptosis or vascular development. […] Cell proliferation is measured using mouse anti-human Ki-67 staining from Pharmigen (San Diego, Calif.). Apoptosis rates are scored using “terminal deoxynucleotidyl transferase-mediated dUTP nick end labeling (TUNEL)” TMR Red Apoptosis kit from Roche (Mannheim, Germany). […] The number of Ki-67 and TUNEL positive cells is quantified as the percentage of total cells in tumors using the IP Lab imaging software program. For CD31, the area occupied by blood vessels is measured. […]

[4] = i.p. 10 mg/kg daily for 4 weeks

## CC(C)c1ccc2c(c1)CCC1[C@](C)(CN)CCC[C@]21C (stereo partly drawn) [Leelamine, [(1R,4aS)-1,4a-dimethyl-7-(propan-2-yl)-1,2,3,4,4a,9,10,10a-octahydrophenanthren-1-yl]methanamine]
[1]
  IC50: 1000 to 3000 nM
[2]; [4]
  blood ALP, ALT, AST, CK, CREA, GLU: No significant differences
  histology of liver, spleen, kidney, intestine, lung, heart: did not significantly alter cell morphology or overall structure
[2]; i.p. 5 or 10 mg/kg every day for 4 weeks
  body weights: no significant differences
[3]; day 11, i.p. 7.5 mg/kg daily from day 6, vs DMSO
  reduction in proliferating cells (Ki-67): 50%
[3]; days 11, 13 and 15, treated from day 6
  active pAkt in tumor lysates (Western blot): decreased active pAkt
